This note sets out measurements from ChEMBL document CHEMBL1154502, “Small, non-peptide C5a receptor antagonists: part 2” (Bioorg Med Chem Lett, 2008).

For series [1], the target named is T1, C5a anaphylatoxin chemotactic receptor 1 (Homo sapiens, UniProt P21730).
T1 sequence (P21730 whole entry): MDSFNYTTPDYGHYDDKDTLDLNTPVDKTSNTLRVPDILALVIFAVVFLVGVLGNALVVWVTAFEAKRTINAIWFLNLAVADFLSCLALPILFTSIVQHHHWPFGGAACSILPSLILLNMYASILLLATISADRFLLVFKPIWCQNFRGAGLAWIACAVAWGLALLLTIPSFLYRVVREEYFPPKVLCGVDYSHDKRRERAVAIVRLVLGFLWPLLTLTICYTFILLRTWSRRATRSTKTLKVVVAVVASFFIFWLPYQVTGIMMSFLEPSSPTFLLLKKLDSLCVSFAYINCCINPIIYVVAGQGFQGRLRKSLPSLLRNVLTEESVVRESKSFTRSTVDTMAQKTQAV
Nature of the series: Displacement of [125I]C5a from C5a receptor in cAMP differentiated human U937 cells by filtration assay. In kind it is cell-based, U-937. On the technique in general: In a radioligand displacement assay an active substance lowers the binding of a labelled ligand.

The target of series [2] is T1, C5a anaphylatoxin chemotactic receptor 1. Nature of the series: Antagonist activity at C5a receptor assessed as inhibition of C5a-induced elastase release in human neutrophils during degranulation preincubated 5 mins prior to C5a challenge using p-nitroanilide as substrate. In kind it is functional.
Series [3] in a line: Octanol-neutral buffer distribution coefficient, log D at pH 7.4. In kind it is physicochemical.
The target in series [4] is T2, C5a anaphylatoxin chemotactic receptor 1 (Homo sapiens) (UniProt P21730).
T2 sequence (whole entry): T1 sequence (P21730 whole entry)
Nature of the series: Antagonist activity at C5a receptor assessed as free drug level required to induce 10-fold shift in C5a-stimulated CD11b upregulation in heparinised human whole blood preincubated 1 min prior to C5a challenge by dose-response curve analysis. In kind it is functional, tissue-based.

The target in series [5] is T2, C5a anaphylatoxin chemotactic receptor 1 (Homo sapiens). Nature of the series: Antagonist activity at C5a receptor assessed as total drug level required to induce 10-fold shift in C5a-stimulated CD11b upregulation in heparinised human whole blood preincubated 1 min prior to C5a challenge by dose-response curve analysis. In kind it is functional, tissue-based.
Series [6] in a line: Protein binding in human plasma. In kind it is ADME, cell-free. To be noted: read-out: PPB (converted).
Series [7] deals with T2, C5a anaphylatoxin chemotactic receptor 1 (Homo sapiens). As to the kind of experiment: Binding affinity to C5a receptor assessed as free drug level required for translation of C5a-induced CD11b upregulation in heparinised human whole blood preincubated 1 min prior to C5a challenge by dose-response curve analysis. In kind it is tissue-based.
Series [8] shares this target. As to the kind of experiment: Binding affinity to C5a receptor assessed as total drug level required for translation of C5a-induced CD11b upregulation in heparinised human whole blood preincubated 1 min prior to C5a challenge by dose-response curve analysis. In kind it is tissue-based.
Series [9] in a line: Dissociation constant, pKa of the compound. In kind it is physicochemical.
Series [10] in a line: Lipophilicity, log D of the compound. In kind it is physicochemical. The settings on record: octanol/water.

For the compound `Clc1ccc(Cc2cnc(-c3cccc4ccccc34)n2C2CCC3(CC2)OCCO3)cc1`, the results for the IC50 in series [1] and in series [2] were 90 nM and 877 nM, respectively.
On the same counts, the results for `c1ccc2c(-c3ncc(CC4CCCCC4)n3C3CCC4(CC3)OCCO4)csc2c1` are 47 nM and 850 nM.
For the compound `COc1cccc(-c2ncc(Cc3ccc(Cl)cc3)n2C2CCC3(CC2)OCCO3)c1`, in [1], the IC50 (as a rule, the midpoint of a concentration-inhibition curve) is > 1000 nM. For the same compound, the logD – broadly, lipophilicity at a set pH, counting ionised and neutral species – in [3] stood at 4.
In the case of `Clc1cccc2nc(-c3csc4ccccc34)n(C3CCC4(CC3)OCCO4)c12`, the IC50 in [1] is 325 nM.
`CCc1ccccc1C(=O)N(C1CCC2(CC1)OCCO2)C(Cc1ccc(Cl)cc1)c1noc(C)n1` (racemic): the IC50 in series [1] is 8 nM; in series [2], 40 nM. The logD in series [3] was > 5.
Turning to `CCc1ccccc1C(=O)N(C1CCC2(CC1)OCCO2)[C@H](CCN(C)C)Cc1ccc(Cl)cc1`, the IC50 in series [1] is > 1000 nM.
Take `COC(=O)C(Cc1ccc(Cl)cc1)N(C(=O)c1csc2ccccc12)C1CCC2(CC1)OCCO2` (racemic): the half-maximal inhibitory concentration (IC50) was determined as 15 nM in [1] and 172 nM in series [2].
`O=C(c1csc2ccccc12)N(C1CCC2(CC1)OCCO2)C(CO)Cc1ccc(Cl)cc1` (racemic): the IC50 in [1] was > 1000 nM.
As to `CN(C)CC(Cc1ccc(Cl)cc1)N(C(=O)c1cccc2ccccc12)C1CCC2(CC1)OCCO2` (racemic), the results for the IC50 in series [1] and in [2] were 13 nM and 22 nM, respectively. Also, the logD in [3] amounted to 4.6.
In [1], `CC(=O)C(Cc1ccc(Cl)cc1)N(C(=O)c1csc2ccccc12)C1CCC2(CC1)OCCO2` (racemic) had an IC50 of 45 nM.
Still for that read-out and setting: to `Clc1ccc(CC2CN=C(c3csc4ccccc34)N2C2CCC3(CC2)OCCO3)cc1` (centres undefined) belongs > 1000 nM.
Consider `Cc1nc(-c2csc3ccccc23)n(C2CCC3(CC2)OCCO3)c1Cc1ccc(Cl)cc1`, for which the IC50 in series [1] was 90 nM. In series [3], this compound gave a logD of 4.6.
As to `Clc1ccc(Cc2nnc(-c3cccc4ccccc34)n2C2CCC3(CC2)OCCO3)cc1`, the IC50 in series [1] was > 1000 nM.
Consider `CCc1ccccc1C(=O)N(C1CCC2(CC1)OCCO2)[C@H](CCN1CCOCC1)Cc1ccc(Cl)cc1`, for which the Activity in series [4] stood at 119 nM; in series [5], 4.4 µM; in series [7] it was 0.6 nM; in series [8] it was 22 nM. In addition, the IC50 in series [1] came out at 200 nM. The compound also had a logD in series [3] of 3.4. Also, the fraction unbound in series [6] is 0.027.
Regarding `CN(C)Cc1ccccc1C(=O)N(CCc1ccc(Cl)cc1)C1CCC2(CC1)OCCO2`, the Activity is > 40 nM in [4] and > 10 µM in series [5]. In series [1], this compound returned an IC50 of 500 nM. The compound further showed a logD in series [3] of 3.3. Moreover, in [6], the fraction unbound is 0.004. Besides, the pKa – broadly, the pH at which an ionisable group is half protonated – in series [9] was found to be 8.4.
As to `COCC(Cc1ccc(Cl)cc1)N(C(=O)c1csc2ccccc12)C1CCC2(CC1)OCCO2` (racemic), the IC50 in [1] turned out to be 12 nM; in series [2], 27 nM.
The matching figures for `CCOC(=O)C(Cc1ccc(Cl)cc1)N(C(=O)c1cccc2ccccc12)C1CCC2(CC1)OCCO2` (racemic): 3 nM and 32 nM.
As for `CCc1ccccc1C(=O)N(C1CCC2(CC1)OCCO2)C(Cc1ccc(Cl)cc1)CN(C)C` (racemic), the Activity in series [4] came out at 17 nM; in [5], 4.8 µM; in series [7], 0.63 nM; in [8], 178 nM. The IC50 in series [1] came out at 27 nM; in [2], 25 nM. In series [3], the logD was > 5. Moreover, the fraction unbound in [6] is 0.004. This compound came in with a pKa in series [9] of 7.4.
In turn, `CCc1ccccc1C(=O)N(C1CCC2(CC1)OCCO2)C(Cc1ccc(Cl)cc1)C(=O)O` (racemic) displayed an IC50 in series [1] of 350 nM.
In [1], `Clc1ccc(Cc2cnc(-c3csc4ccccc34)n2C2CCC3(CC2)OCCO3)cc1` came in with an IC50 of 500 nM. Further, the logD in [3] is > 4.
On the same counts, the results for `Clc1ccc2nc(-c3csc4ccccc34)n(C3CCC4(CC3)OCCO4)c2c1Cl` are 790 nM and > 5.
`O=C(Nc1ccc(F)cc1F)N1CCC(N(CCc2ccc(Cl)cc2)C(=O)c2csc3ccccc23)CC1`: in [10], the logD is < 4.
